The text below walks through data of PMC12040169 (PLOS Biology, 2025).

The first data set can be described thus: in vitro. Particulars: human, hela cells, % viability.
For `CNC(=O)C1(Cc2ccc(-c3ccccc3)cc2)CCN(C(=O)Cc2ccccc2)CC1` [CBK285764], the viability at 28.5 h, 10 µM worked out at 103%.
Still for that read-out and setting: then `COc1ccc([C@H]2CN(C(=O)c3ccccc3)[C@@H]3CCN(Cc4ccccc4)C[C@H]23)cc1` [CBK285592], with 98.5%; and `COC(=O)c1ccsc1NS(=O)(=O)c1ccc(Br)cc1` [CBK039058], with 94.1%; and `Cc1cc(NS(=O)(=O)c2ccc3oc(=O)ccc3c2)n(C)n1` [CBK067250], with 99.6%.
The same measure, in the same setting: the value for `Cc1ccc(S(=O)(=O)Nc2ccsc2C(=O)N2CCOCC2)cc1[N+](=O)[O-]` [CBK004612] was 81.7%; that for `Cc1ccc(Nc2ncc3c(n2)CCCC3=O)cc1` [CBK288143] was 87.6%; that for `CCOC(=O)CN1CCC(Oc2nccnc2OCC2COc3ccccc3O2)CC1` (stereo not drawn) [CBK082989T] was 96.6%.
Still for that read-out and setting: the value for `Cc1cccc(Cn2cnc(NC(=O)Nc3cccc(Cl)c3C)n2)c1` [CBK266876] was 89.5%; that for `CC1(C)Cc2nc(N3CCOCC3)ncc2C(NC(=O)C2CCCC2)C1` (stereo not drawn) [CBK307687] was 115%; that for `Cc1cc(C)cc(N(CC(=O)O)S(C)(=O)=O)c1` [CBK263775] was 111%.
`CC1(C(F)(F)F)OC(NC2C3CC4CC(C3)CC2C4)=NC1=O` (stereo not drawn) [CBK115312]: the viability at 28.5 h, 10 µM was 114%.
Consider `Cc1[nH]c2ccccc2c1Cc1n[nH]c(=S)n1Cc1ccccc1` [CBK266985], for which the viability at 28.5 h, 10 µM is 99.5%.
In the case of `CCOc1ccc(S(=O)(=O)Nc2ccc(O)c(C(=O)O)c2)cc1` [CBK299810], the viability at 28.5 h, 10 µM turned out to be 93.5%.
Consider `C=CCn1ncc(CN2CCC3(O)CCCCC3C2)c1C` (stereo not drawn) [CBK283029], for which the viability at 28.5 h, 10 µM worked out at 100%.
On to `Clc1ccc(CN2CCN(c3nccnc3OCc3cccnc3)CC2)cc1` [CBK083130T], for which the viability at 28.5 h, 10 µM is 99.6%.
Still for that read-out and setting: then `CN(C)CCn1c(=O)[nH]c2ncc(-c3ccco3)nc21` [CBK064251], with 97.1%.
On the same count and under the same terms, the value for `COc1ccc(C(NC(=O)c2ccc(C(C)N3CCOCC3)o2)c2ccccc2)cc1` (stereo not drawn) [CBK285748] was 112%; that for `Cc1ccc(C(=O)NC2CCN(C(=O)Nc3cc(Cl)ccc3F)CC2)s1` [CBK305243] was 88.8%.
Still for that read-out and setting: then `COc1cccc(CNc2ccc(-c3nc4ncccc4o3)cc2)c1OC` [CBK269716], with 91%; and `Cc1cccc(C(=O)Nc2ccccc2C(=O)N2CCN(C)CC2)c1` [CBK268565], with 89%.
In the case of `CCOC(=O)c1sc2nc(C(C)N(C)Cc3ccco3)[nH]c(=O)c2c1C` (stereo not drawn) [CBK306148], the viability at 28.5 h, 10 µM was determined as 106%.
On the same count and under the same terms, the value for `S=C(NCc1ccco1)NCc1cn(-c2ccccc2)nc1-c1ccccc1` [CBK266895] was 112%.
The same measure, in the same setting: then `Cc1cccc(NS(=O)(=O)c2ccc(OCC(=O)Nc3ccc4c(c3)OCCO4)cc2)c1` [CBK268068], with 111%.
The same measure, in the same setting: the value for `Cc1ccn2c(=O)cc(COC(=O)c3sc4nc(C)cc(C)c4c3N)nc2c1` [CBK297783] was 93.3%; that for `CCOC(=O)c1c(C)nc2ccccc2c1O` [CBK153666] was 110%.
For the compound `OCCNc1nc(Cl)nc(Nc2nc(-c3ccccc3)cs2)n1` [CBK261381], the viability at 28.5 h, 10 µM is 86.2%.
Take `COc1ccc(NC(=O)c2ccc(N3CCN(Cc4ccccc4)CC3)c([N+](=O)[O-])c2)cc1` [CBK263260]: the viability at 28.5 h, 10 µM is 106%.
As for `Nc1ncc(-c2cccnc2)nc1NCc1ccccc1` [CBK063349], the viability at 28.5 h, 10 µM came out at 102%.
The same measure, in the same setting: then `COc1ccc(-c2ccnc(N[C@H]3CO[C@H]4[C@@H]3OC[C@@H]4NC(=O)c3ccccc3)n2)cc1` [CBK289526], with 83.5%.
Same read-out and setting: the value for `Cc1ccc(NC(=O)c2cnc3ccccc3n2)c(C)n1` [CBK200218] was 97.7%.
On to `Cc1c(-c2cncn2CC(=O)NC(C)(C)C)[nH]c2ccccc12` [CBK281911], for which the viability at 28.5 h, 10 µM worked out at 87.5%.
Turning to `O=C1CCCC2=C1C(c1ccccc1Cl)n1nnnc1N2` (stereo not drawn) [CBK288151], the viability at 28.5 h, 10 µM was 93%.
On the same count and under the same terms, then `Cn1cc(C(=O)N2CCc3ccccc3C2)c2ccccc21` [CBK200338], with 90%; and `O=S(=O)(NCc1ccccc1)c1ccc(Cl)c(S(=O)(=O)NCc2ccccc2)c1` [CBK263251], with 81.9%.
The same measure, in the same setting: then `CCOC(=O)Cc1ccc(Nc2cc(-c3ccc(N(C)C)cc3)ncn2)cc1` [CBK090712], with 31.6%; and `Cc1nc(-c2cccnc2)[nH]c(=O)c1CC(=O)N(C)C1CCCC1` [CBK304907], with 83%; and `COCOc1ccc(-c2ncc(OC)nc2NC(=O)COC)cc1` [CBK145216], with 92.7%.
Still for that read-out and setting: then `O=[N+]([O-])c1ccc(N2CCN(S(=O)(=O)c3ccc4ccccc4c3)CC2)cc1NCc1ccco1` [CBK264417], with 108%.
Turning to `O=C(Oc1ccc(/C=N/Nc2nc(N3CCOCC3)nc(N3CCOCC3)n2)cc1)c1ccccc1` [CBK262064], the viability at 28.5 h, 10 µM was determined as 107%.
With `CCn1c(Cc2c(C)[nH]c3ccccc23)nnc1SCC(=O)NC12CC3CC(CC(C3)C1)C2` [CBK267529], the viability at 28.5 h, 10 µM worked out at 89.3%.
On the same count and under the same terms, then `O=C(c1c[nH]c(=O)n(-c2ccc(F)cc2)c1=O)N1CCc2ccccc21` [CBK287554], with 101%.
`COc1ccc(OC)c(C(O)CN2CCc3sccc3C2c2cccs2)c1` (stereo not drawn) [CBK285532]: the viability at 28.5 h, 10 µM is 109%.
On the same count and under the same terms, the value for `COc1cc2c(cc1OC)CN(Cc1cc(=O)[nH]c(=O)[nH]1)CC2` [CBK126393] was 103%; that for `Cn1c(C2CC(=O)N(c3ccc(Cl)cc3)C2)nc2ccccc21` (stereo not drawn) [CBK287783] was 87.1%.
For the compound `Cc1ccc(C(=O)/C=C\Nc2ccc(S(=O)(=O)Nc3cc(C)nc(C)n3)cc2)cc1` [CBK264384], the viability at 28.5 h, 10 µM was found to be 124%.
The same measure, in the same setting: the value for `Cc1ccccc1Cc1cccc(C2CCN(C(=O)Cc3ccccc3)CC2)n1` [CBK285625] was 94.7%; that for `CCN1C(=O)c2cccc3c(S(=O)(=O)Nc4cccc(C(=O)O)c4)ccc1c23` [CBK299838] was 97.5%.
Still for that read-out and setting: the value for `O=C1CNC(=O)C2(C/C=C/C[C@H]3COCC[C@@H]3N1)CCN(C(=O)CCc1cccnc1)CC2` [CBK292051] was 107%; that for `Nc1ncc(-c2cccc(-c3ccccc3)c2)nc1NCc1cccnc1` [CBK063491] was 93.5%.
Still for that read-out and setting: the value for `Cc1cc(NC(=O)NC2CCSc3ccccc32)no1` (stereo not drawn) [CBK259296] was 74.8%; that for `Fc1ccc(Oc2nccnc2N2CCN(Cc3ccccc3F)CC2)cc1` [CBK083009T] was 91.8%; that for `FC(F)(F)c1cnc(N2CCNCC2)c(Cl)c1` [CBK013400] was 92.9%.
As for `O=C(CCOc1ccccc1)Nc1cncc(OC2CCNCC2)n1` [CBK026734T], the viability at 28.5 h, 10 µM worked out at 95.2%.
Still for that read-out and setting: the value for `O=C(O)CCC(=O)N1CCN(c2ncccn2)CC1` [CBK057422] was 114%; that for `CCNC(=O)C1(Cc2ccccc2-c2ccccc2)CCN(C(=O)c2ccccc2)CC1` [CBK285700] was 109%.
On the same count and under the same terms, the value for `CC1CCc2n[nH]c(C(=O)NCCCc3ccco3)c2C1` (stereo not drawn) [CBK283153] was 88.6%.
On the same count and under the same terms, then `Cc1nc2cc(OCc3nc(C(=O)NCC4CCOC4)co3)ccc2s1` (stereo not drawn) [CBK307508], with 86.1%; and `CC(=O)Oc1cc(C)cc(C#N)c1` [CBK038296], with 87.6%.
Regarding `CN1CCC[C@H]1C(=O)N1CCC(Cn2cncn2)(C2CCCCC2)CC1` [CBK136818], the viability at 28.5 h, 10 µM is 101%.
Consider `CCNc1nc(C#N)nc(Nc2ccccc2)n1` [CBK027733], for which the viability at 28.5 h, 10 µM was 86.1%.
Same read-out and setting: then `CCN(Cc1cncn1C)C(CC1CCCCC1)c1ccccc1` (stereo not drawn) [CBK066815T], with 122%; and `O=C(NC(=S)Nc1ccc(S(=O)(=O)Nc2nccs2)cc1)C12CC3CC(CC(C3)C1)C2` [CBK261067], with 101%.
The same measure, in the same setting: the value for `O=C(NC[C@H]1CC[C@H](c2nnc(-c3ccsc3)o2)CC1)C1CC1` [CBK283361] was 85.5%; that for `Clc1ccc(Cn2ncc3c(NCc4cccnc4)ncnc32)cc1` [CBK300478] was 94.9%.
Still for that read-out and setting: then `C=C[C@H]1C[N@@]2CC[C@H]1C[C@@H]2CNS(=O)(=O)c1cccc(C#N)c1` [CBK288750], with 103%; and `Fc1ccc(-c2ccc(N3CCN(c4ccncc4)CC3)nc2)cc1Cl` [CBK036821], with 111%; and `Cc1c(CN2CCCCC2CCN2CCCC2=O)oc2ccccc12` (stereo not drawn) [CBK282181], with 104%.
With `NC[C@H]1CC[C@H](C(=O)NCCN2CCc3ccccc32)CC1` [CBK282723], the viability at 28.5 h, 10 µM was 82.7%.
Consider `COc1ccc(C(=O)N2Cc3ccccc3C2)c(OC)n1` [CBK200317], for which the viability at 28.5 h, 10 µM was 103%.
Still for that read-out and setting: the value for `Nc1ccccc1NC(=O)NC(=O)c1ccccc1` [CBK022767] was 94%; that for `CC(C)(C)c1ccccc1NC(=O)N(Cc1cc(F)cc(F)c1)CC1CCNCC1` [CBK049802] was 108%.
On the same count and under the same terms, then `COc1ccc2c(c1)C(=O)NC1(CCN(C(=O)c3ccc(OC)c(C)c3)CC1)O2` [CBK166291], with 106%.
On the same count and under the same terms, then `COc1ccc(CCN2CCC(Oc3nccnc3OCc3cccnc3)CC2)cc1OC` [CBK083179T], with 99%.
As for `COc1ccc(C(C)C)cc1-c1cncc(N[C@@H](C)c2ccccc2)n1` [CBK065504], the viability at 28.5 h, 10 µM is 115%.
In the case of `O=C(c1ccccc1)N1CCCC(c2nccnc2-c2cccc(C(F)(F)F)c2)C1` (stereo not drawn) [CBK286218], the viability at 28.5 h, 10 µM came to 99.9%.
As to `c1ccc2c(c1)CSCC2Oc1cncc(N2CCNCC2)n1` (stereo not drawn) [CBK172356T], the viability at 28.5 h, 10 µM was 94.9%.
Still for that read-out and setting: then `OCCN(CCO)c1nccnc1-c1ccccc1F` [CBK036610], with 106%.

The data set is the same for the next values; noted with them: human, hela cells, % viability, bulk resorufin, single well.
For `O=C(O)CCn1cc(C=C2C(=O)NC(=S)NC2=O)c(-c2cccc([N+](=O)[O-])c2)n1` [CBK265309], the viability at 28.5 h, 10 µM was determined as 116%.
